From patent publication US10669235B2, “Indole derivatives and their use as protein kinase inhibitors” (RESPIVERT LIMITED, priority 2016, dated 2020) come the findings set out here.

Broadly, the Ki is a dissociation constant, usually derived from enzyme kinetics or from competition with a known ligand. The IC50 is the concentration needed to halve the response being measured. Broadly, the Papp is the rate of passage across a membrane or cell layer, normalised by area and donor concentration. Lower therefore signals poor permeation.

Data set [1] addresses T1, PDGFRβ (Homo sapiens (Human), UniProt P09619). Kind of data set: PDGFRβ enzyme inhibition (ADP-Glo assay). Particulars: mean, n = 2 (nintedanib n = 34). In kind it is biochemical. On the technique in general: ADP-Glo turns the ADP formed in a reaction into a luminescent signal.
In data set [2] the target is T1, PDGFRβ. The experiment in a line: PDGF-BB induced phosphorylation of PDGFRβ in fibroblasts (MRC5, HTRF). In kind it is cell-based. The following applies: MRC5 cells, PDGFBB stimulation; read-out: PDGFBB-induced PDGFRβ phosphorylation in MRC5 cells (IC50). (In general: Time-resolved FRET reads energy transfer from a long-lived donor to a nearby acceptor.)
Another data set in a line: PAMPA permeability assay. In kind it is in vitro ADME. The following applies: pH 7, PAMPA; for Papp at 5 h, 10 µM: pH 7, 10 μM. (In general: The PAMPA barrier holds no transporters, so it reflects passive diffusion.)
Another data set deals with MRC5 cells. The experiment in a line: Cell viability assay in MRC5 cells (MTT).

Structures can show the parent of a compound that is named as a salt.

T1 sequence (P09619 33-1106): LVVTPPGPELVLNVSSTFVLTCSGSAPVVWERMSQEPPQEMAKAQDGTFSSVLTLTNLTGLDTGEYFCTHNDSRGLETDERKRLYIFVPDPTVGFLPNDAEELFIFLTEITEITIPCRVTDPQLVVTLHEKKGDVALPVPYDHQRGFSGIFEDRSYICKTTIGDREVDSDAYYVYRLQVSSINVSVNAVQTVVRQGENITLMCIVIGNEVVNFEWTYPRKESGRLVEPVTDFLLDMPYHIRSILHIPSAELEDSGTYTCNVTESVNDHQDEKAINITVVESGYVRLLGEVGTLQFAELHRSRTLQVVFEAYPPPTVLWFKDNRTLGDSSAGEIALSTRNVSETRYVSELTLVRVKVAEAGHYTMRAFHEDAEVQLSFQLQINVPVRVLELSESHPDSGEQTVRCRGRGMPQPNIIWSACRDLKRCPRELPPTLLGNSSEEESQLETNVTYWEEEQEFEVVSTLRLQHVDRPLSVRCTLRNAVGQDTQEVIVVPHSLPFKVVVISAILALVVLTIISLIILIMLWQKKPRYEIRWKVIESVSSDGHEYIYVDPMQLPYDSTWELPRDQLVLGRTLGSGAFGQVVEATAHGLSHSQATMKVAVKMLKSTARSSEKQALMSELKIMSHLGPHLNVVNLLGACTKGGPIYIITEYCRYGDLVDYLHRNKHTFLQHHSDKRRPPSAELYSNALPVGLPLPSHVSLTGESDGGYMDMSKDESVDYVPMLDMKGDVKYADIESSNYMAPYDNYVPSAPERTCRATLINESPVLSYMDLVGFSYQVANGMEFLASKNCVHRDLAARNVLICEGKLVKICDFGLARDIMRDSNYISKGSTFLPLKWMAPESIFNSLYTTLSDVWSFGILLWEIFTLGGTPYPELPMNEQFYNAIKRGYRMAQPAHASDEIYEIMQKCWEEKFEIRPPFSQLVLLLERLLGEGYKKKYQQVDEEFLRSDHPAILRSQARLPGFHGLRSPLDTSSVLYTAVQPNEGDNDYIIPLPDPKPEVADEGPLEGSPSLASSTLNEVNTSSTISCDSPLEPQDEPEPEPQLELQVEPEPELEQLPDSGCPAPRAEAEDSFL

On to `COC(=O)c1cc2c(cc1C)/C(=C(/Nc1ccc(C(=O)NCCCN(C)C)cc1)c1ccccc1)C(=O)N2` [Example 22, (Z)-Methyl 3-(((4-((3-(dimethylamino)propyl)carbamoyl)phenyl)amino)(phenyl)methylene)-5-methyl-2-oxoindoline-6-carboxylate, 0.5 formate], for which affinity on PDGFRβ [1] was put at a Ki of 9.29 nM. Also, on PDGFRβ [2], the half-inhibitory concentration (IC50) is 12.3 nM. In the data set “PAMPA permeability assay”, this compound gave a recovery at 5 hr, 10 μM of 101% and a Papp at 5 h, 10 µM of 0.046 ×10⁻⁶ cm/s. For the same compound, in the data set with MRC5 cells, the “Cell viability at 100 nM (%)” value was 72.3%, the “Cell viability at 300 nM (%)” value worked out at 58.8% and the “Cell viability at 1000 nM (%)” value is given as 48.8%.

At PDGFRβ [1], `COC(=O)c1cc2c(cc1C)/C(=C(/Nc1ccc(C(=O)NCC3(N(C)C)CCOCC3)cc1)c1ccccc1)C(=O)N2` [Example 36, (Z)-Methyl 3-(((4-(((4-(dimethylamino)tetrahydro-2H-pyran-4-yl)methyl)carbamoyl)phenyl)amino)(phenyl)methylene)-5-methyl-2-oxoindoline-6-carboxylate] came in with a Ki of 15.9 nM. Further, the IC50 at PDGFRβ [2] was 9.96 nM. In “PAMPA permeability assay”, this compound had a recovery at 5 hr, 10 μM of 77.4% and a Papp at 5 h, 10 µM of 8.96 ×10⁻⁶ cm/s. Moreover, in the data set on MRC5 cells, the “Cell viability at 100 nM (%)” value is 87.3%, the “Cell viability at 300 nM (%)” value came out at 77.2% and the “Cell viability at 1000 nM (%)” value is 69.6%.

`COC(=O)c1cc2c(cc1C)/C(=C(/Nc1ccc(C(=O)NCCN3CCN(S(C)(=O)=O)CC3)cc1)c1ccccc1)C(=O)N2` [Example 44, (Z)-Methyl-5-methyl-3-(((4-((2-(4-(methylsulfonyl)piperazin-1-yl)ethyl)carbamoyl)phenyl)amino)(phenyl)methylene)-2-oxoindoline-6-carboxylate] had an inhibition constant (Ki) at PDGFRβ [1] of 17.8 nM. Besides, at PDGFRβ [2], the IC50 was found to be 3.33 nM. Besides, in “PAMPA permeability assay”, the recovery at 5 hr, 10 μM was found to be 71.7% and the Papp at 5 h, 10 µM amounted to 0.00879 ×10⁻⁶ cm/s. Moreover, in the data set on MRC5 cells, the “Cell viability at 100 nM (%)” value came to 98.4%, the “Cell viability at 300 nM (%)” value was 78.4% and the “Cell viability at 1000 nM (%)” value is reported as 60.4%.

On PDGFRβ [1], `COC(=O)c1cc2c(cc1C)/C(=C(/Nc1ccc(C(=O)NCCN3CCCN(C(C)=O)CC3)cc1)c1ccccc1)C(=O)N2` [Example 34, (Z)-Methyl 3-(((4-((2-(4-acetyl-1,4-diazepan-1-yl)ethyl)carbamoyl)phenyl)amino)(phenyl)methylene)-5-methyl-2-oxoindoline-6-carboxylate] displayed an inhibition constant (Ki) of 14.4 nM. For the same compound, the half-inhibitory concentration (IC50) at PDGFRβ [2] came to 4.71 nM. In “PAMPA permeability assay”, this compound returned a recovery at 5 hr, 10 μM of 41.1% and a Papp at 5 h, 10 µM of 0.00748 ×10⁻⁶ cm/s. In addition, in the data set with MRC5 cells, the “Cell viability at 100 nM (%)” value is given as 82.9%, the “Cell viability at 300 nM (%)” value came to 74.4% and the “Cell viability at 1000 nM (%)” value is on record as 16.2%.

For the compound `COC(=O)c1cc2c(cc1C)/C(=C(/Nc1ccc(C(=O)N3CCC(C(=O)NCCN(C)C)CC3)cc1)c1ccccc1)C(=O)N2` [Example 31, (Z)-Methyl 3-(((4-(4-((2-(dimethylamino)ethyl)carbamoyl)piperidine-1-carbonyl)phenyl)amino)(phenyl)methylene)-5-methyl-2-oxoindoline-6-carboxylate, 0.4 formate], the Ki at PDGFRβ [1] amounted to 4.83 nM. Also, the IC50 on PDGFRβ [2] was determined as 5.52 nM. Also, in the data set “PAMPA permeability assay”, the recovery at 5 hr, 10 μM worked out at 66.2% and the Papp at 5 h, 10 µM was found to be 0.00531 ×10⁻⁶ cm/s. In addition, in the data set with MRC5 cells, the “Cell viability at 100 nM (%)” value is reported as 69.3%, the “Cell viability at 300 nM (%)” value came to 47.3% and the “Cell viability at 1000 nM (%)” value amounted to 34.3%.

Regarding `COC(=O)c1cc2c(cc1C)/C(=C(/Nc1ccc(C(=O)NC3CCN(CCO)CC3)cc1)c1ccccc1)C(=O)N2` [Example 13, (Z)-Methyl 3-(((4-((1-(2-hydroxyethyl)piperidin-4-yl)carbamoyl)phenyl)amino) (phenyl)methylene)-5-methyl-2-oxoindoline-6-carboxylate], the inhibitory constant (Ki) at PDGFRβ [1] was 10.4 nM. Moreover, the concentration for half-maximal inhibition (IC50) on PDGFRβ [2] was 1.25 nM. In the data set “PAMPA permeability assay”, this compound yielded a recovery at 5 hr, 10 μM of 76.3% and an apparent permeability (Papp) at 5 h, 10 µM of 0.0439 ×10⁻⁶ cm/s. In the data set on MRC5 cells, the “Cell viability at 100 nM (%)” value was found to be 84.3%, the “Cell viability at 300 nM (%)” value is 93.2% and the “Cell viability at 1000 nM (%)” value is on record as 102.1%.

As for `COC(=O)c1cc2c(cc1C)/C(=C(/Nc1ccc(C(=O)N3CCC4(CC3)C(=O)NCCCN4C)cc1)c1ccccc1)C(=O)N2` [Example 43, (Z)-Methyl-5-methyl-3-(((4-(7-methyl-12-oxo-3,7,11-triazaspiro[5.6]dodecane-3-carbonyl)phenyl)amino)(phenyl)methylene)-2-oxoindoline-6-carboxylate], the Ki on PDGFRβ [1] was 25.2 nM. In addition, the IC50 on PDGFRβ [2] came out at 2.31 nM. In addition, in the data set “PAMPA permeability assay”, the Papp at 5 h, 10 µM amounted to 0.865 ×10⁻⁶ cm/s. In the data set with MRC5 cells, the “Cell viability at 300 nM (%)” value came out at 58.8% and the “Cell viability at 1000 nM (%)” value is 6.4%.

Compound `COC(=O)c1cc2c(cc1C)/C(=C(/Nc1ccc(C(=O)N(CCO)CCN(C)C)cc1)c1ccccc1)C(=O)N2` [Example 32, (Z)-Methyl 3-(((4-((2-(dimethylamino)ethyl)(2-hydroxyethyl)carbamoyl)phenyl)amino)(phenyl)methylene)-5-methyl-2-oxoindoline-6-carboxylate, 0.3 formate] gave a Ki at PDGFRβ [1] of 5.02 nM. On PDGFRβ [2], the IC50 amounted to 4.53 nM. In the data set “PAMPA permeability assay”, this compound came in with a recovery at 5 hr, 10 μM of 59.6% and an apparent permeability coefficient (Papp) at 5 h, 10 µM of 0.0217 ×10⁻⁶ cm/s. In addition, in the data set with MRC5 cells, the “Cell viability at 100 nM (%)” value was found to be 99.3%, the “Cell viability at 300 nM (%)” value is 129.3% and the “Cell viability at 1000 nM (%)” value was 49.4%.

`COC(=O)c1cc2c(cc1C)/C(=C(/Nc1ccc(S(=O)(=O)N3CCN(CCO)CC3)cc1)c1ccccc1)C(=O)N2` [Example 26, (Z)-Methyl 3-(((4-((4-(2-hydroxyethyl)piperazin-1-yl)sulfonyl)phenyl)amino)(phenyl)methylene)-5-methyl-2-oxoindoline-6-carboxylate, formate]: the Ki on PDGFRβ [1] came to 45 nM. Besides, on PDGFRβ [2], the half-inhibitory concentration (IC50) came out at 18.1 nM. In “PAMPA permeability assay”, this compound showed a recovery at 5 hr, 10 μM of 96.2% and an apparent permeability coefficient (Papp) at 5 h, 10 µM of 10.3 ×10⁻⁶ cm/s. In addition, in the data set with MRC5 cells, the “Cell viability at 100 nM (%)” value is 84.4%, the “Cell viability at 300 nM (%)” value came to 91.6% and the “Cell viability at 1000 nM (%)” value was found to be 57.6%.

In turn, `COC(=O)c1cc2c(cc1C)/C(=C(/Nc1ccc(C(=O)N3CCC(CO)(CN(C)C)CC3)cc1)c1ccccc1)C(=O)N2` [Example 38, (Z)-Methyl-3-(((4-(4-((dimethylamino)methyl)-4-(hydroxymethyl)piperidine-1-carbonyl)phenyl)amino)(phenyl)methylene)-5-methyl-2-oxoindoline-6-carboxylate] displayed a Ki at PDGFRβ [1] of 4.79 nM. Besides, the IC50 at PDGFRβ [2] was determined as 1.7 nM. In the data set “PAMPA permeability assay”, this compound yielded a recovery at 5 hr, 10 μM of 70.3% and a Papp at 5 h, 10 µM of 0.0269 ×10⁻⁶ cm/s. In addition, in the data set on MRC5 cells, the “Cell viability at 100 nM (%)” value is recorded as 70.7%, the “Cell viability at 300 nM (%)” value is listed as 63% and the “Cell viability at 1000 nM (%)” value is on record as 4.2%.

Compound `COC(=O)c1cc2c(cc1C)/C(=C(/Nc1ccc(C(=O)N3CCC(O)(CN4CCCC4)CC3)cc1)c1ccccc1)C(=O)N2` [Example 37, (Z)-Methyl-3-(((4-(4-hydroxy-4-(pyrrolidin-1-ylmethyl)piperidine-1-carbonyl)phenyl)amino)(phenyl)methylene)-5-methyl-2-oxoindoline-6-carboxylate, formate] showed an inhibitory constant (Ki) on PDGFRβ [1] of 7.54 nM. At PDGFRβ [2], the IC50 turned out to be 5.28 nM. Besides, in the data set “PAMPA permeability assay”, the recovery at 5 hr, 10 μM was 68.2% and the Papp at 5 h, 10 µM was 0.0542 ×10⁻⁶ cm/s. In addition, in the data set with MRC5 cells, the “Cell viability at 100 nM (%)” value was determined as 93.6%, the “Cell viability at 300 nM (%)” value is given as 83.4% and the “Cell viability at 1000 nM (%)” value worked out at 18.4%.

The compound `COC(=O)c1cc2c(cc1C)/C(=C(/Nc1ccc(C(=O)N3CC[C@@H](CN(C)C)[C@H](O)C3)cc1)c1ccccc1)C(=O)N2` [Example 33, (Z)-Methyl 3-(((4-((3S,4S)-4-((dimethylamino)methyl)-3-hydroxypiperidine-1-carbonyl)phenyl)amino)(phenyl)methylene)-5-methyl-2-oxoindoline-6-carboxylate] showed a Ki on PDGFRβ [1] of 6.82 nM. Besides, the IC50 on PDGFRβ [2] is 2.32 nM. In the data set “PAMPA permeability assay”, this compound yielded a recovery at 5 hr, 10 μM of 69.1% and a Papp at 5 h, 10 µM of 0.0269 ×10⁻⁶ cm/s. In addition, in the data set on MRC5 cells, the “Cell viability at 100 nM (%)” value is reported as 86.6%, the “Cell viability at 300 nM (%)” value was 63.1% and the “Cell viability at 1000 nM (%)” value came out at 19.8%.

`COCCN(C)CCNC(=O)c1ccc(N/C(=C2\C(=O)Nc3cc(C(=O)OC)c(C)cc32)c2ccccc2)cc1` [Example 35, (Z)-Methyl 3-(((4-((2-((2-methoxyethyl)(methyl)amino)ethyl)carbamoyl)phenyl)amino)(phenyl)methylene)-5-methyl-2-oxoindoline-6-carboxylate, 0.5 formate] returned a Ki at PDGFRβ [1] of 17 nM. Further, at PDGFRβ [2], the half-maximal inhibitory concentration (IC50) was 17.3 nM. In the data set “PAMPA permeability assay”, this compound returned a recovery at 5 hr, 10 μM of 79.2% and a Papp at 5 h, 10 µM of 10.7 ×10⁻⁶ cm/s. For the same compound, in the data set with MRC5 cells, the “Cell viability at 100 nM (%)” value is on record as 99.8%, the “Cell viability at 300 nM (%)” value was 122.5% and the “Cell viability at 1000 nM (%)” value came to 99.1%.

In turn, `COC(=O)c1cc2c(cc1C)/C(=C(/Nc1ccc(C(=O)N[C@H]3CCCN(C)C3)cc1)c1ccccc1)C(=O)N2` [Example 27, (S,Z)-Methyl 5-methyl-3-(((4-((1-methylpiperidin-3-yl)carbamoyl)phenyl)amino)(phenyl)methylene)-2-oxoindoline-6-carboxylate, 0.5 formate] gave an inhibition constant (Ki) on PDGFRβ [1] of 18 nM. The IC50 on PDGFRβ [2] came to 43 nM. In “PAMPA permeability assay”, this compound showed a recovery at 5 hr, 10 μM of 54.3% and a Papp at 5 h, 10 µM of 16.8 ×10⁻⁶ cm/s. Besides, in the data set on MRC5 cells, the “Cell viability at 100 nM (%)” value is reported as 106.5%, the “Cell viability at 300 nM (%)” value is on record as 112.6% and the “Cell viability at 1000 nM (%)” value came to 82.9%.
